Experimental data as given in patent US20250249113A1, “LIGAND-DRUG-CONJUGATES WITH IMPROVED PHARMACOKINETIC AND DRUG RELEASE PROPERTIES” (Debiopharm Research & Manufacturing S.A., priority 2022, published 2025).
Where a SMILES comes first, the peptide text is derived from it. Side-chain parts run from the residue outwards. [ ]: non-standard residue; d: D form. The star is where a group is joined. DM1Mal(CH2)2CO = COc1cc2cc(c1Cl)N(C)C(=O)C[C@H](OC(=O)[C@H](C)N(C)C(=O)CCSC1CC(=O)N(CCC(=O)*)C1=O)[C@]1(C)O[C@H]1[C@H](C)[C@@H]1C[C@@](O)(NC(=O)O1)[C@H](OC)/C=C/C=C(\C)C2; X1 = CC(=O)N[C@@H](CSC1CC(=O)N(CCC(=O)*)C1=O)C(=O)O; Dolaproine = CO[C@@H]([C@@H]1CCCN1)[C@@H](C)C(=O)O; Dil = CC[C@H](C)[C@H](NC)[C@@H](CC(=O)O)OC; NMe2Val = CC(C)[C@@H](C(=O)*)N(C)C; PEG5 = NCCOCCOCCOCCOCCOCCC(=O)O; Cit = NC(=O)NCCC[C@H](N)C(=O)O; PEG4 = NCCOCCOCCOCCOCCC(=O)O

Legend:
Cathepsin B = molecular target: T1, Cathepsin B (Homo sapiens, UniProt P07858); test: Cat B-induced cleavage study (in vitro enzymatic cleavage assay, UHPLC-MS/MS); type: biochemical; details: for Ratio (T1/2 Compound/T1/2 Reference): reference: Cys-MC-Val-Cit-PABC-MMAF; for half-life at 10 μM: human, recombinant human Cathepsin B, 10 μM compound, Cathepsin B 2 μg/mL, 25 mM MES buffer pH 5.0, 37° C., read-out: T1/2 Compound
T1 construct: purchased R&D Systems, Bio-Techne AG 953-CY-010
Procedure: (§1) The propensity of compounds 1-13 to be cleaved by Cathepsin B—was evaluated according to an in vitro enzymatic cleavage assay using recombinant human Cathepsin B and UHPLC-MS/MS analysis as described below.
(§2) Reference compounds Cys-MC-Val-Cit-PABC-MMAF and MMAF were used as positive controls. The enzyme was reconstituted in 25 mM MES buffer adjusted at pH 5.0 with a 1M NaOH solution and then activated with a […] solution of DDT at room temperature for at least 15 min.
(§3) The in vitro enzymatic assay was conducted at 37° C. with the test compounds at a concentration of 10 μM (2.5 μM when the test compound is an antibody-drug conjugate) in the presence of activated recombinant human Cathepsin B enzyme at 2 μg/mL in a 25 mM MES buffer pH 5.0. The enzymatic cleavage reaction was stopped for each defined time point by mixing an equal volume of acetonitrile+0.1% FA containing an internal standard (warfarine at 8 μM).
(§4) Analysis was conducted using a Waters Acquity UPLC System coupled to a Waters Xevo TQ triple quad mass spectrometer. UHPLC was conducted depending on the test compounds with a BEH C8 1.7 μm 100×2.1 mm or BEH C18 1.7 μm 50×2.1 mm or HSS T3 1.7 μm 50×2.1 mm columns heated at 45° C. or 50° C. and fitted with 2 μm insert filter pre-columns (available from Waters), and solvent systems A1 (H2O+0.1% FA) and B1 (acetonitrile+0.1% FA) at a flow rate of 0.6 mL/min and a 10-95% gradient of B1 over 1.9 min.
(§5) MS/MS was performed using electrospray ionization (ESI) interface in positive mode and specific MRM transitions for each tested compound.

[1] = molecular target: T2, Cathepsin B (exo-Cat B cleavage) (Homo sapiens, UniProt P07858); test: as above; type: biochemical; details: human, recombinant human Cathepsin B, pH 5; read-out: T1/2 (cleavage by exo-Cat B)
T2 construct: purchased R&D Systems, Bio-Techne AG 953-CY-010
Procedure: as §1, §2, §3, §4, §5

[2] = DRF toxicity study of DM1-Ac-Cit and DM1-Ac-Cit-Lys(Cys-ma-Lys(PEG16))-Tyr-OH, 2 intravenous bolus injections (Day 1 and Day 8), female mice; type: in vivo, mouse; details: for related mortalities, clinical observations or effects on body weights and food consumption / related ophthalmic findings or changes in clinical pathology parameters / related organ weight changes, macroscopic and microscopic findings: DM1-Ac-Cit 0.15, 0.68 or 1.4 mg/kg/adm, DM1-Ac-Cit-Lys(Cys-ma-Lys(PEG16))-Tyr-OH 3.5 mg/kg/adm, 2 i.v. injections
Procedure: The objectives of this study were to determine the potential toxicity of Multilink-DM1-Ac-Cit and DM1-Ac-Cit-Lys(Cys-ma-Lys(PEG16))-Tyr-OH when administered intravenously (via bolus injection).
2 injections of the same dose of either DM1-Ac-Cit ((test item 1) at 0.15, 0.68 or 1.4 mg/kg/adm) or 2 injections of the same dose of DM1-Ac-Cit-Lys(Cys-ma-Lys(PEG16))-Tyr-OH ((test item 2) at 3.5 mg/kg/adm were administered separately (on Day 1 and Day 8 (7-day interval) to CD-1® IGS mice, and the reversibility and/or delayed occurrence of any findings were evaluated during a 10-day observation period. In addition, the toxicokinetic characteristics of DM1-Ac-Cit-Lys(Cys-ma-Lys(PEG16))-Tyr-OH, DM1-Ac-Cit, and the catabolite DM1 were determined.
A control group received the Vehicle Control 1: 8% Ethanol/8% Polysorbate (Tween*) 80/PBS 84%.
The study design was as follows:
The following parameters and end points were evaluated in this study: mortality, clinical observations, body weights, food consumption, ophthalmology, clinical pathology parameters (hematology and clinical chemistry), toxicokinetic parameters, organ weights, and macroscopic and microscopic examinations.

Compound | Ratio (T1/2 Compound/T1/2 Reference) (Cathepsin B) | half-life at 10 μM (Cathepsin B) | other results
CC[C@H](C)[C@@H]([C@@H](CC(=O)N1CCC[C@H]1[C@H](OC)[C@@H](C)C(=O)N[C@@H](Cc1ccccc1)C(=O)N[C@@H](CCCNC(=N)N)C(=O)N[C@@H](CCCCNC(=O)CCOCCOCCOCCOCCOCCNC(=O)CCN1C(=O)CC(SC[C@H](NC(C)=O)C(=O)O)C1=O)C(=O)N[C@@H](Cc1ccccc1)C(=O)O)OC)N(C)C(=O)[C@@H](NC(=O)[C@H](C(C)C)N(C)C)C(C)C (stereo partly drawn) [Compound 1, AF-Arg-Lys(PEG4-Mal-Cys-Ac)-Phe-OH] (NMe2Val-V[Dil][Dolaproine]FRK([PEG5-X1])F-OH; N-terminus assumed) | 0.12 | – | –
CC[C@H](C)[C@@H]([C@@H](CC(=O)N1CCC[C@H]1[C@H](OC)[C@@H](C)C(=O)N[C@@H](Cc1ccccc1)C(=O)N[C@@H](CCCNC(=N)N)C(=O)N[C@@H](Cc1ccccc1)C(=O)N[C@@H](CCCCNC(=O)CCOCCOCCOCCOCCNC(=O)CCN1C(=O)CC(SC[C@H](NC(C)=O)C(=O)O)C1=O)C(=O)O)OC)N(C)C(=O)[C@@H](NC(=O)[C@H](C(C)C)N(C)C)C(C)C (stereo partly drawn) [Compound 3, AF-Arg-Phe-Lys(PEG4-Mal-Cys-Ac)-OH] (NMe2Val-V[Dil][Dolaproine]FRFK([PEG4-X1])-OH; N-terminus assumed) | 0.11 | – | –
COc1cc2cc(c1Cl)N(C)C(=O)C[C@H](OC(=O)[C@H](C)N(C)C(=O)CCSC1CC(=O)N(CCC(=O)N[C@@H](Cc3ccccc3)C(=O)N[C@@H](CCCCN)C(=O)N[C@@H](CCCCNC(=O)CCOCCOCCOCCOCCNC(=O)CCN3C(=O)CC(SC[C@H](NC(C)=O)C(=O)O)C3=O)C(=O)N[C@@H](Cc3ccccc3)C(=O)O)C1=O)[C@]1(C)O[C@H]1[C@H](C)[C@@H]1C[C@@](O)(NC(=O)O1)[C@H](OC)/C=C/C=C(\C)C2 (stereo partly drawn) [Compound 5, DM1-Mal-Phe-Lys-Lys(PEG4-Mal-Cys-Ac)-Phe-OH] ({DM1Mal(CH2)2CO}-FKK([PEG4-X1])F-OH; N-terminus assumed) | 0.05 | 0.6 min | Cat B-induced drug release, faster as compared to reference Cys-MC-Val-Cit-PABC-MMAF (Cathepsin B): 20 times
COc1cc2cc(c1Cl)N(C)C(=O)C[C@H](OC(=O)[C@H](C)N(C)C(=O)CCSC1CC(=O)N(CCC(=O)N[C@@H](Cc3ccccc3)C(=O)N[C@@H](CCCNC(N)=O)C(=O)N[C@@H](CCCCNC(=O)CCOCCOCCOCCOCCNC(=O)CCN3C(=O)CC(SC[C@H](NC(C)=O)C(=O)O)C3=O)C(=O)N[C@@H](Cc3ccccc3)C(=O)O)C1=O)[C@]1(C)O[C@H]1[C@H](C)[C@@H]1C[C@@](O)(NC(=O)O1)[C@H](OC)/C=C/C=C(\C)C2 (stereo partly drawn) [Compound 6, DM1-Mal-Phe-Cit-Lys(PEG4-Mal-Cys-Ac)-Phe-OH] ({DM1Mal(CH2)2CO}-F[Cit]K([PEG4-X1])F-OH; N-terminus assumed) | 0.02 | 0.3 min | –
COc1cc2cc(c1Cl)N(C)C(=O)C[C@H](OC(=O)[C@H](C)N(C)C(=O)CCSC1CC(=O)N(CCC(=O)N[C@@H](Cc3ccccc3)C(=O)N[C@@H](CCCNC(N)=O)C(=O)N[C@@H](Cc3ccccc3)C(=O)N[C@@H](CCCCNC(=O)CCOCCOCCOCCOCCNC(=O)CCN3C(=O)CC(SC[C@H](NC(C)=O)C(=O)O)C3=O)C(=O)O)C1=O)[C@]1(C)O[C@H]1[C@H](C)[C@@H]1C[C@@](O)(NC(=O)O1)[C@H](OC)/C=C/C=C(\C)C2 (stereo partly drawn) [Compound 7, DM1-Mal-Phe-Cit-Phe-Lys(PEG4-Mal-Cys-Ac)-OH] ({DM1Mal(CH2)2CO}-F[Cit]FK([PEG4-X1])-OH; N-terminus assumed) | 0.09 | 1.2 min | –
CC[C@H](C)[C@@H]([C@@H](CC(=O)N1CCC[C@H]1[C@H](OC)[C@@H](C)C(=O)N[C@@H](Cc1ccccc1)C(=O)N[C@@H](CCCNC(N)=O)C(=O)N[C@@H](CCCCNC(=O)CCOCCOCCOCCOCCNC(=O)CCN1C(=O)CC(SC[C@H](NC(C)=O)C(=O)O)C1=O)C(=O)N[C@@H](Cc1ccccc1)C(=O)O)OC)N(C)C(=O)[C@@H](NC(=O)[C@H](C(C)C)N(C)C)C(C)C (stereo partly drawn) [Compound 8, AF-Cit-Lys(PEG4-Mal-Cys-Ac)-Phe-OH] (NMe2Val-V[Dil][Dolaproine]F[Cit]K([PEG4-X1])F-OH; N-terminus assumed) | 0.09 | – | –
COc1cc2cc(c1Cl)N(C)C(=O)C[C@H](OC(=O)[C@H](C)N(C)C(=O)CCSC1CC(=O)N(CC3CCC(C(=O)N[C@@H](Cc4ccccc4)C(=O)N[C@@H](CCCNC(N)=O)C(=O)N[C@@H](CCCCNC(=O)CCOCCOCCOCCOCCOCCNC(=O)CN4C(=O)CC(SC[C@H](NC(C)=O)C(=O)O)C4=O)C(=O)N[C@@H](Cc4ccc(O)cc4)C(=O)O)CC3)C1=O)[C@]1(C)O[C@H]1[C@H](C)[C@@H]1C[C@@](O)(NC(=O)O1)[C@H](OC)/C=C/C=C(\C)C2 (stereo partly drawn) [Compound 11, DM1-Mcc-Phe-Cit-Lys(PEG5-Ma-Cys-Ac)-Tyr-OH] | 0.005 | 0.06 min | half-life [1]: ≤ 1 min
COc1cc2cc(c1Cl)N(C)C(=O)C[C@H](OC(=O)[C@H](C)N(C)C(=O)CCSC1CC(=O)N(CC3CCC(C(=O)N[C@@H](CCCNC(N)=O)C(=O)N[C@@H](CCCCNC(=O)CCOCCOCCOCCOCCOCCNC(=O)CN4C(=O)CC(SC[C@H](NC(C)=O)C(=O)O)C4=O)C(=O)N[C@@H](Cc4ccc(O)cc4)C(=O)O)CC3)C1=O)[C@]1(C)O[C@H]1[C@H](C)[C@@H]1C[C@@](O)(NC(=O)O1)[C@H](OC)/C=C/C=C(\C)C2 (stereo partly drawn) [Compound 12, DM1-Mcc-Cit-Lys(PEG5-Ma-Cys-Ac)-Tyr-OH] | 0.00004 | – | half-life [1]: ≤ 1 min
DM1-Ac-Cit | – | – | tolerability ([2]; 2 i.v. bolus injections at 7-day interval at 0.15, 0.68, and 1.4 mg/kg/adm, female CD-1 mice): well tolerated; related mortalities, clinical observations or effects on body weights and food consumption [2]: no; related ophthalmic findings or changes in clinical pathology parameters [2]: no; related organ weight changes, macroscopic and microscopic findings [2]: no macroscopic and microscopic findings; no observed adverse effect level (NOAEL) ([2]; DM1-Ac-Cit, 2 i.v. bolus injections at 7-day interval, female CD-1 mice): 1.4 mg/kg/adm
DM1-Ac-Cit-Lys(Cys-ma-Lys(PEG16))-Tyr-OH | – | – | tolerability ([2]; 2 i.v. bolus injections at 7-day interval at 3.5 mg/kg/adm): well tolerated; related mortalities, clinical observations or effects on body weights and food consumption [2]: no; related ophthalmic findings or changes in clinical pathology parameters [2]: no; related organ weight changes, macroscopic and microscopic findings [2]: no macroscopic and microscopic findings
